Among the test systems are IGROV1 ovarian; M14 melanoma; NCI-H226 lung; NCI-H460 lung; OVCAR-5 ovarian; SF-268 CNS; SF-295 CNS; SK-MEL-5 melanoma.
Assay in all cases: inhibition of tumour cell growth, NCI panel, 48 h

Experimental findings from PubChem BioAssay (NCI) are described below.

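In this assay, cells in 96-well plates receive the compound at five concentrations for 48 hours. Endpoints are linearly interpolated between the surrounding concentrations. GI50: concentration for 50% inhibition of growth. Definition used: TGI = concentration required for complete inhibition of growth.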

As to `C/C=C(\C)C(=O)N[C@H]1[C@@H](OC(C)=O)C[C@]2(C)C3CC[C@@]4(C)C(CC[C@@H]4C(C)N(C)C)C3CCC2[C@H]1O` (stereo not given in full), the GI50 in the test with IGROV1 ovarian is 5.88 µM; with M14 melanoma it was 2.02 µM; in the test with NCI-H226 lung, 5.53 µM; in the test on NCI-H460 lung, 2.18 µM; in the test with OVCAR-5 ovarian, 13.8 µM; with SF-268 CNS, 2.9 µM. Further, the GI50 was 3.44 µM in the test with SF-295 CNS and 1.6 µM in the test on SK-MEL-5 melanoma. Moreover, the TGI with IGROV1 ovarian is 16.8 µM; in the test with M14 melanoma, 3.72 µM; with NCI-H226 lung it was 22 µM; with NCI-H460 lung it was 5.8 µM; in the test on OVCAR-5 ovarian it was 28.2 µM; in the test with SF-268 CNS, 13.3 µM. Also, the TGI is 14.9 µM in the test on SF-295 CNS and 3.77 µM in the test with SK-MEL-5 melanoma.
In the case of `O=C(/C=C/C=C/c1ccccc1)CCc1ccccc1`, the TGI in the test with IGROV1 ovarian, in the test on M14 melanoma, in the test with NCI-H226 lung, in the test on OVCAR-5 ovarian, in the test with SF-268 CNS and in the test on SF-295 CNS was over 100 µM in each case. The TGI with SK-MEL-5 melanoma was over 100 µM.
For the compound `Cc1ccccc1C(=O)C#Cc1cn(C2CC(O)C(CO)O2)c(=O)[nH]c1=O` (stereo not given), the TGI with IGROV1 ovarian, with M14 melanoma, in the test on NCI-H226 lung, with NCI-H460 lung, with SF-268 CNS and in the test on SF-295 CNS was over 100 µM in each case. For the same compound, the TGI with SK-MEL-5 melanoma is over 100 µM.
As for `Nc1nc(Nc2ccc3c(c2)CC[C@@H](N2CCCC2)CC3)nn1-c1cc2c(nn1)-c1ccccc1CCC2`, the GI50 is 1.43 µM with M14 melanoma; 1.31 µM with NCI-H460 lung; 1.63 µM in the test on OVCAR-5 ovarian; 1.44 µM in the test on SF-268 CNS; 1.88 µM in the test with SF-295 CNS; 1.72 µM in the test on SK-MEL-5 melanoma. The TGI with M14 melanoma came out at 3 µM; in the test on NCI-H460 lung, 2.82 µM; in the test on OVCAR-5 ovarian, 3.29 µM; in the test with SF-268 CNS it was 3.26 µM; in the test with SF-295 CNS, 3.51 µM; with SK-MEL-5 melanoma it was 3.11 µM.
Consider `COc1ccc2c(c1)nc(N)c1c3cc(OC)c(OC)cc3cn21`, for which the GI50 with IGROV1 ovarian was 0.249 µM; in the test with NCI-H460 lung it was 0.0606 µM; in the test on OVCAR-5 ovarian it was 0.0749 µM; in the test with SK-MEL-5 melanoma, 0.0645 µM. Also, the TGI in the test with IGROV1 ovarian came out at 20.1 µM; with NCI-H226 lung, 16.8 µM; in the test with NCI-H460 lung, 11 µM; in the test on OVCAR-5 ovarian, 18.8 µM; in the test on SF-268 CNS, 17.5 µM; in the test on SF-295 CNS it was 16.2 µM. Moreover, in the test with SK-MEL-5 melanoma, the TGI is 0.987 µM.
Turning to `CCOC(=O)Cc1csc(/N=C2\NC(=O)/C(=C3\C(=O)N(C)c4ccccc43)S2)n1`, the GI50 in the test with IGROV1 ovarian is 20.6 µM; with NCI-H226 lung, 28.6 µM; in the test with NCI-H460 lung, 20.7 µM; with OVCAR-5 ovarian, over 100 µM; with SF-268 CNS, 45.2 µM; with SF-295 CNS it was 29.8 µM. The GI50 in the test on SK-MEL-5 melanoma is 38 µM. For the same compound, the TGI in the test with IGROV1 ovarian is 69.2 µM; in the test with NCI-H226 lung, over 100 µM; in the test on NCI-H460 lung, 55.9 µM; in the test on OVCAR-5 ovarian, over 100 µM; in the test with SF-268 CNS it was over 100 µM; with SF-295 CNS, 87 µM. This compound also gave a TGI in the test with SK-MEL-5 melanoma of over 100 µM.
In the case of `N#CC1=C(N)N=C(N2CCCCC2)C(C#N)C12Nc1ccccc1S2` (stereo not given), the GI50 in the test with IGROV1 ovarian was 58.9 µM; in the test with M14 melanoma, 19.1 µM; in the test on NCI-H460 lung, 27 µM; in the test with SF-268 CNS, 18.9 µM; in the test on SF-295 CNS it was 37.7 µM; in the test with SK-MEL-5 melanoma, 19.6 µM. Further, the TGI is over 100 µM with IGROV1 ovarian; 46.8 µM with M14 melanoma; over 100 µM in the test with NCI-H460 lung; 67.2 µM in the test on SF-268 CNS; over 100 µM in the test on SF-295 CNS; 42.3 µM in the test with SK-MEL-5 melanoma.
On to `CC(C)(C)C(=O)Nc1ccccc1I(=O)=O`, for which the GI50 with IGROV1 ovarian, in the test on NCI-H226 lung, with NCI-H460 lung, in the test on OVCAR-5 ovarian, with SF-268 CNS and in the test with SF-295 CNS was over 100 µM each time. In addition, in the test with SK-MEL-5 melanoma, the GI50 was over 100 µM. The TGI with IGROV1 ovarian, in the test on NCI-H226 lung, with NCI-H460 lung, with OVCAR-5 ovarian, in the test on SF-268 CNS and in the test with SF-295 CNS was over 100 µM each time. Further, the TGI with SK-MEL-5 melanoma is over 100 µM.
As to `C=C1CC[C@@]2(C#N)[C@H]3[C@H](CC[C@@H]2C)[C@@H](C)C[C@@H](CC(C)(C)C#N)[C@H]13`, the GI50 in the test with IGROV1 ovarian was 4.77 µM; with M14 melanoma, 1.48 µM; in the test on NCI-H226 lung, 2.43 µM; with NCI-H460 lung it was 0.877 µM; with SF-268 CNS it was 2.34 µM; in the test on SF-295 CNS, 0.171 µM. Besides, in the test on SK-MEL-5 melanoma, the GI50 is 1.54 µM. Besides, the TGI is 59.4 µM with IGROV1 ovarian; 12.5 µM with M14 melanoma; 24.1 µM with NCI-H226 lung; 12.8 µM in the test with NCI-H460 lung; 35.3 µM in the test on SF-268 CNS; 1.68 µM with SF-295 CNS. The TGI with SK-MEL-5 melanoma was 12.9 µM.
With `C[C@@H]1O[C@@H](O[C@@H]2[C@@H](O)[C@H](OCCc3ccc(O)c(O)c3)O[C@H](COC(=O)/C=C/c3ccc(O)c(O)c3)[C@H]2O)[C@H](O)[C@H](O)[C@H]1O`, the GI50 with IGROV1 ovarian, in the test with M14 melanoma, with NCI-H226 lung, in the test with NCI-H460 lung, in the test with OVCAR-5 ovarian and in the test on SF-295 CNS was over 100 µM each time. In addition, in the test with SK-MEL-5 melanoma, the GI50 is over 100 µM. In addition, the TGI with IGROV1 ovarian, in the test on M14 melanoma, with NCI-H226 lung, with NCI-H460 lung, in the test with OVCAR-5 ovarian and in the test with SF-295 CNS was over 100 µM in each case. In the test on SK-MEL-5 melanoma, this compound showed a TGI of over 100 µM.
As for `N#CC1=C(N)OC2=C(COc3ccc(F)cc32)C1c1ccc(Cl)cc1` (stereo not given), the GI50 in the test on IGROV1 ovarian is 70.3 µM; in the test on M14 melanoma it was 44.6 µM; with NCI-H460 lung, 27.8 µM; in the test with OVCAR-5 ovarian, 41.6 µM; with SF-268 CNS it was 42.8 µM; in the test on SF-295 CNS, 19.6 µM. Further, the GI50 in the test with SK-MEL-5 melanoma is 20.4 µM. For the same compound, the TGI with IGROV1 ovarian is over 100 µM; with M14 melanoma, over 100 µM; in the test on NCI-H460 lung, over 100 µM; with OVCAR-5 ovarian, over 100 µM; in the test on SF-268 CNS it was over 100 µM; with SF-295 CNS, 78.3 µM. Also, the TGI in the test on SK-MEL-5 melanoma was 58.7 µM.
